Holding throughout (test): inhibition of tumour cell growth, NCI panel, 48 h
The test system of experiment [1] is HCT-116 colon.
The test system of experiment [2] is HT29 colon.
Experiment [3] concerns M14 melanoma.
Experiment [4] concerns MALME-3M melanoma.
The subject of experiment [5] is NCI-H522 lung.
The test system of experiment [6] is OVCAR-5 ovarian.
For experiment [7], the system named is RPMI-8226 leukemia.
Experiment [8] has as its system SF-539 CNS.
Experiment [9] relates to SW-620 colon.
In experiment [10] the test system is T-47D breast.

Structures are written as SMILES.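 Following 48 hours of exposure in 96-well plates, responses at five concentrations were used to interpolate endpoints linearly. At the GI50, growth is halved. Definition used: TGI = concentration required for complete inhibition of growth.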

As for `Nc1[nH]nc(Nc2ccccc2)c1-c1nc2ccccc2s1`, the GI50 is 1.29 µM in [1]; 3.39 µM in experiment [2]; 1.55 µM in experiment [3]; 2.79 µM in experiment [4]; 1.58 µM in [5]; 2.26 µM in experiment [6]. Further, the GI50 in experiment [7] is 2.24 µM; in experiment [8], 1.68 µM; in experiment [9] it was 2.58 µM; in [10], 2.2 µM. Further, the TGI in experiment [1] amounted to 2.71 µM; in experiment [2] it was 11.5 µM; in experiment [3] it was 3.58 µM; in experiment [4] it was 8.58 µM; in experiment [5], 3.63 µM; in [6], 8.77 µM. The TGI in experiment [7] turned out to be 6.65 µM; in [8] it was 3.34 µM; in [9], 7.29 µM; in experiment [10] it was 11.2 µM.
Take `Nc1n[n+]([O-])c2ccc(Cl)cc2[n+]1[O-]`: the TGI in [1] is more than 100 µM; in experiment [2], 77 µM; in experiment [3], 40.4 µM; in experiment [4], 59 µM; in experiment [5], 38.2 µM; in experiment [6], 79 µM. Moreover, the TGI in [7] is more than 100 µM; in [8], 58.7 µM; in experiment [9], 61.2 µM; in experiment [10] it was 99.4 µM.
On to `Nc1c(C(=O)c2cccc(-c3cccnc3)c2)cnn1-c1ccc(F)cc1`, for which the GI50 in experiment [1] is more than 25 µM; in experiment [2], more than 25 µM; in experiment [3], more than 25 µM; in [4] it was more than 25 µM; in experiment [5] it was 6.12 µM; in experiment [6], more than 25 µM. Also, the GI50 in experiment [7], in experiment [8], in experiment [9] and in [10] was more than 25 µM each time. Also, the TGI is more than 25 µM in experiment [1]; more than 25 µM in experiment [2]; more than 25 µM in [3]; more than 25 µM in experiment [4]; 24.7 µM in experiment [5]; more than 25 µM in [6]. The TGI in [7], in experiment [8], in experiment [9] and in experiment [10] was more than 25 µM each time.
Regarding `CCCC(=O)Oc1ccc(/C(=C(\C)c2ccc(Cl)cc2)c2ccc(OCCN(CC)CC)cc2)cc1`, the GI50 in experiment [1] was 1.55 µM; in [2] it was 1.85 µM; in experiment [3], 1.9 µM; in experiment [4] it was 1.74 µM; in experiment [5], 12.9 µM; in [6], 4.84 µM. The GI50 in [7] is 2.92 µM; in experiment [8], 1.94 µM; in experiment [9], 1.99 µM; in [10], 1.39 µM. Moreover, the TGI amounted to 3.21 µM in [1]; 4.06 µM in experiment [2]; 4.36 µM in experiment [3]; 3.55 µM in experiment [4]; 29.5 µM in experiment [5]; 19.7 µM in experiment [6]. Also, the TGI in experiment [7] was found to be 9.02 µM; in experiment [8], 3.98 µM; in [9], 4.35 µM; in [10], 4.88 µM.
Regarding `O=C(O)c1cccc([As]=[As]c2cccc(C(=O)O)c2)c1` (stereo not given), the TGI is more than 100 µM in experiment [1]; more than 100 µM in experiment [2]; more than 100 µM in [3]; 43.9 µM in experiment [4]; 35.7 µM in experiment [5]; 53.8 µM in [6]. Moreover, the TGI in [7] was 59.5 µM; in experiment [8], 39.1 µM; in [9] it was more than 100 µM; in experiment [10], more than 100 µM.
`O=C1c2ccccc2C(=O)c2c1ccc1conc21`: the TGI was 3.51 µM in experiment [1]; 13 µM in [2]; 5.7 µM in [3]; 4.75 µM in experiment [4]; 3.44 µM in experiment [5]; 6.93 µM in experiment [6]. The TGI was 3.85 µM in [7], 3.87 µM in experiment [8], 4.36 µM in experiment [9] and 2.02 µM in experiment [10].
For the compound `O=C(CCN1CCCC1)Nc1ccc2c(Nc3ccc(F)cc3)c3ccccc3nc2c1`, the GI50 was 0.906 µM in experiment [1]; 0.734 µM in experiment [2]; 1.64 µM in experiment [3]; 1.57 µM in experiment [4]; 1.31 µM in experiment [5]; 1.95 µM in experiment [6]. In addition, the GI50 in experiment [7] is 0.981 µM; in experiment [8] it was 1.61 µM; in [9], 0.64 µM; in experiment [10], 1.01 µM. Moreover, the TGI turned out to be 2.58 µM in [1]; 3.72 µM in [2]; 3.53 µM in experiment [3]; 2.99 µM in experiment [4]; 3.25 µM in [5]; 4.7 µM in experiment [6]. Also, the TGI in experiment [7] came to 5.51 µM; in experiment [8], 3.05 µM; in [9], 2.29 µM; in experiment [10], 3.79 µM.
For `O=[N+]([O-])c1ccc(Sc2cccc[n+]2[O-])c2nonc12`, the GI50 in experiment [1] was 1.4 µM; in [2], 3.4 µM; in experiment [3] it was 4.32 µM; in experiment [4] it was 2.09 µM; in experiment [5] it was 1.78 µM; in experiment [6] it was 4.32 µM. Moreover, the GI50 is 2.12 µM in [7], 19.3 µM in experiment [8], 1.65 µM in experiment [9] and 1.69 µM in [10]. Besides, the TGI in experiment [1] worked out at 12.5 µM; in [2] it was 29.4 µM; in experiment [3], 16.4 µM; in experiment [4], 5.34 µM; in [5] it was 3.79 µM; in [6], 17.9 µM. Moreover, the TGI in experiment [7] was more than 100 µM; in [8] it was 54.3 µM; in experiment [9], 3.41 µM; in [10] it was 6.5 µM.
With `N#CC1=C(N)NC(=O)C(C#N)C12Nc1ccccc1S2` (stereo not given), the GI50 in experiment [1] was 59.4 µM; in [2] it was more than 100 µM; in [3], 87.9 µM; in experiment [4] it was 64 µM; in experiment [5], 19.1 µM; in experiment [6] it was more than 100 µM. Further, the GI50 in experiment [7] is 43.2 µM; in experiment [8], more than 100 µM; in [9] it was more than 100 µM; in experiment [10], more than 100 µM. For the same compound, the TGI was more than 100 µM in [1]; more than 100 µM in experiment [2]; more than 100 µM in experiment [3]; more than 100 µM in experiment [4]; 60.5 µM in experiment [5]; more than 100 µM in experiment [6]. The TGI in experiment [7], in experiment [8], in [9] and in experiment [10] was more than 100 µM in each case.

Source of the values: PubChem BioAssay (NCI).
